The subject of assay [1] is MCA-205 sarcoma. In words: MCA-205 sarcoma growth in FMT-treated mice, CTX plus oral gavage with E. hirae strains. The class given is in vivo. The note with it: for antitumor effect together with CTX (summary statements): MCA205 tumor model together with CTX; for boost of CTX tumoricidal activity (MCA-205 tumor growth): dysbiotic FMT from BC patient, 3 cycles CTX 100 mg/kg, oral gavage 1.10^9 bacteria; for Anti-tumor effect: summary of the characteristics of the strains, with CTX, MCA205 sarcoma. On the procedure:
FIG. 1. Experimental setting. (A) Mice are treated with broad spectrum antibiotics (streptomycin, colistin, ampicillin and vancomycine) for 3 days before performing Fecal Microbiota Transplantation (FMT). 14 days post-FMT, MCA-205 sarcoma cell lines are inoculated in the right flank of mice (8.10^5 cells per mice). […] (B) Non FMT-treated SPF mice are used as control.
FIG. 2. Dysbiosis by FMT BC patient 1: Effectiveness of E. hirae 13144 to restore CTX-mediated antitumor effects. […] (C) Tumor growth curves of MCA-205 sarcoma in FMT-treated mice after oral gavage with strain E. hirae 13144 or NaCl as control. 2 independent experiments are depicted. (D) Overall survival of FMT-treated, MCA-205 sarcoma bearing mice treated with CTX or NaCl after oral gavage with strain E. hirae 13144. A typical survival curve is depicted for six mice per group. (E) Concatenated data of tumor sizes at day 21 post-CTX from 2 independent experiments are shown.
FIG. 3. […] (C) Tumor growth curves of MCA-205 sarcoma in FMT-treated mice after oral gavage with strain E. hirae 13144 or NaCl as control. 2 independent experiments are depicted. (D) Concatenated data of tumor sizes at day 21 post-CTX from 2 independent experiments are shown.
FIG. 4. […] Tumor growth curves of MCA-205 sarcoma in FMT-treated mice after oral gavage with strain E. hirae 13144 (A), IGR1 (B) or NaCl as control. A typical curve is depicted for six mice per group. (C) Concatenated data of tumor sizes at day 17 post-CTX from 1-2 independent experiments are shown. (D). Comparaison of various strains of E. hirae for their capacity to control tumor growth. […] EH10815 fails to work and that may be related to a mutation residing in TMP2 (see below FIG. 13B).
FIG. 5. […] (A) Tumor surface of MCA-205 sarcoma in FMT-treated mice after oral gavage with strain E. hirae 13144, IGR4, IGR7, Actinomycetes spp (Ao) and injected with 3 cycles of CTX (C) vs NaCl (N). Each dot is one mouse/tumor. (B) Tumor growth curves of MCA-205 sarcoma in SPF mice of the best group, means+SEM of tumor sizes at each time point and tumor sizes at sacrifice (C: CTX). Each dot is one mouse/tumor. Anova statistics indicating significant differences between CTX and the triple combination. (C) Tumor surface of MCA-205 sarcoma in FMT-treated mice after oral gavage with strains EH13144, IGR1, IGR11, Barnesiella or Akkermansia and injected with 3 cycles of CTX. Bacterial strains are used alive (V) or pasteurized (P). For pasteurization, bacteria are incubated 30 min at 70° C. and frozen at −80° C. at least 6 hours.
FIG. 6. […] Tumor growth curves of MCA-205 sarcoma in FMT-treated mice after oral gavage with strain E. hirae 13144 alive (A), pasteurized (B) or NaCl as control. A typical curve is depicted for six mice per group. (C) Concatenated data of tumor sizes at day 17 post-CTX from 3 independent experiments are shown.

Assay [2] deals with MCA-205 sarcoma. In words: MCA205 sarcoma growth in antibiotic-treated SPF C57BL/6 mice, CTX plus oral gavage with bacteria. The class given is in vivo. The note with it: ATB 3 days, CTX 100 mg/kg x3, weekly oral gavages, FIG. 27B. As for the experimental part: (§1) A and C. Experimental setting. […] D-E. Ex vivo recall assays. […] Each dot represents one mouse.
A-B. Prophylactic vaccinations. […] C-D. Therapeutic settings.
Mice were treated during 3 days with an antibiotic solution (ATB) containing ampicillin (1 mg/ml), streptomycin (5 mg/ml), colistin (1 mg/ml) (Sigma-Aldrich) and vancomycin (0.25 mg/ml) added in the sterile drinking water of mice. Antibiotic activity was confirmed by cultivating fecal pellets resuspended in BHI+15% glycerol at 0.1 g/ml on COS (BD Columbia Agar with 5% Sheep Blood) plates for 48 h at 37° C. in aerobic and anaerobic conditions. In the context of bacterial transplantation experiments, mice received 3 days of ATB before undergoing bacterial transplantation the next day by oral gavage using animal feeding needles.
Syngeneic C57BL/6 mice were implanted with 0.8×10^6 MCA-205 WT sarcoma cells subcutaneously and treated intraperitoneally (i.p.) when tumors reached 20 to 35 mm^2 in size with CTX (100 mg/kg). Depending on the experimental setting, mice were injected once or 3 times at 1-week interval. Tumor size was routinely monitored every 3 days by means of a caliper.
Enterococcus hirae 13144 were originally isolated from spleens of SPF mice treated with CTX in our laboratory.

For another assay, the system named is splenic CD8+ T cells. In words: IFNγ ELISpot recall assay of splenic CD8+ T cells with DCs pulsed with heat-inactivated bacteria or peptides. The assay is classed as cell-based, mice. The settings on record: for recall responses to TMP1, TMP2 and Group7 after in vivo immunization with the strain: Example 3, FIG. 13E. On the procedure: FIG. 9. Experimental immunization protocols to elucidate the immunogenicity of EH peptides. […] 5 days after the first oral gavage, mice are treated with CTX. One week post-CTX, CD8+ T cells are isolated from spleen. These CD8+ T cells are incubated with dendritic cells (DCs) pulsed with 20 μg/ml of peptides (during 1 hour) or with heat-inactivated bacteria (during 6 hours). Inactivation of bacteria consists in incubation at 65° C. during 2 hours. After 24 hours of culture, ELIspot of IFNγ is performed.
FIG. 10. Cross-reactivity between the two E. hirae 708 and 13144 species for CTL splenic reactivity. Number of IFNγ spot representing IFNγ-secreting CD8+ T cells after co-culture with DCs pre-incubated with or without heat-inactivated bacteria (708, 13144, EH17 and L. plantarum).
FIG. 13. Peptides from group 7 containing the TMP1 and TMP2 epitopes activate CD8+ T cells from spleen of mice immunized against E. hirae 13144. Number of IFNγ spot, representing IFNγ-secreting CD8+ T cells, after incubation with DCs pulsed with 13 different group of peptide (Table 6). Just group n° 1 (A) and group n° 7 (B) are shown. (C, E) Number of IFNγ spot, representing IFNγ-secreting CD8+ T cells, after incubation with DCs pulsed with 4 peptides belong to group n° 7 (in table 7). (D) Sequence alignment of TMP1 and TMP2 of EH10815 (SEQ ID Nos: 228 and 229 respectively) compared to EH13144 (fragments of SEQ ID NO: 1) at the level of immunogenic peptides. Amino acid sequence […] corresponds to SEQ ID No: 13. Amino acid sequence […] corresponds to SEQ ID No: 217. Amino acid sequence […] corresponds to SEQ ID Nos: 14. Amino acid sequence AlIEFIKGL corresponds to SEQ ID No: 218. (E) In vitro reactivity of splenic CTL in a recall response to TMP1 and TMP2 as well as Group7 after in vivo immunization with other strains of EH.
as §1

The subject of assay [3] is TMP1-specific CD8+ T cells. The settings on record: FIG. 27H.
The subject of another assay is pTh17 cells. In words: Induction of pTh17 cells in secondary lymphoid organs of CTX-treated animals. The class given is in vivo. The text has this:
The reasons for these differences were however unknown, and the inventors pursued their research to identify the factor(s) responsible for the immunogenic properties of the murine strain EH13144 and the human clones IGR4, IGR7 and IGR11, in order to derive new molecules or microorganisms useful in the treatment of cancer.

For assay [4], the system named is CD8+ T cells from HLA-A02*01 healthy volunteers. In words: IFNγ ELISpot of CD8+ T cells from HLA-A2 healthy volunteers stimulated with TMP epitopes. The assay is classed as cell-based, human. The settings on record: Example 7, FIG. 24B.
In another assay the test system is BM-DC. In words: IL-1B and IL-12 production by BM-DC. The note with it: data not shown. The assay is classed as cell-based.
Assay [5] relates to MCA205 cells with PSMB4 GSFARFRNI knock-in. In words: Growth of Psmb4 knock-in MCA205 tumors under CTX +/- E. hirae 13144. The assay is classed as in vivo, mice. The settings on record: L→F exchange in position 3, versus WT MCA205.

Entries after “also recorded” stand apart in the source; their conditions may differ. Where no end group is shown, it is not given here.

For the compound Enterococcus hirae strain IGR7 [IGR 7], the “antitumor effect together with CTX (summary statements)” value (from here on “antitumor effect together with CTX”) is on record as “proved immunogenic” in the assay with MCA-205 sarcoma [1] and “effective at synergizing with CTX” in the assay with MCA-205 sarcoma [1] (listed as clone IGR7). In addition, the figures for the “boost of CTX tumoricidal activity (MCA-205 tumor growth)” value (shortened to “boost of CTX tumoricidal activity”) in the assay with MCA-205 sarcoma [1] and in the assay on MCA-205 sarcoma [1] (listed as EH IGR 7) were “also immunogenic” and “efficacy comparable to EH 13144”, respectively. In the assay on MCA-205 sarcoma [1], the Anti-tumor effect result is recorded as “Yes”. Moreover, the “restoration of antibiotic-perturbed anticancer effects of CTX (MCA205 growth)” value (“restoration” for short) with MCA-205 sarcoma [2] is on record as “efficient”; in the assay on MCA-205 sarcoma [2] (listed as E. hirae IGR7) it was “as efficient as E. hirae 13144”. Besides, the “recall responses to TMP1, TMP2 and Group7 after in vivo immunization with the strain” value in the assay with splenic CD8+ T cells is recorded as “induce recall responses”. Besides, the “proportion of splenic TMP1-specific CTLs after immunization with the strain (tetramer)” value in assay [3] is reported as “high proportion”. Moreover, the “capacity to induce pTh17 cells in secondary lymphoid organs” value with pTh17 cells is given as “significant capacity to induce pTh17 cells”.

As for KLAKFASVV, the “immunogenicity in humans of HLA-A0201-restricted epitopes” value (“immunogenicity in humans” for short) in assay [4] is given as “immunogenicity of which has been experimentally confirmed”.

As to ILVAITTTI, the “immunogenicity in humans” value in assay [4] was “immunogenicity of which has been experimentally confirmed”.

Consider Enterococcus hirae IGR10 [IGR 10], for which, in the assay on MCA-205 sarcoma [1], the “boost of CTX tumoricidal activity” value is recorded as “failed to efficiently boost CTX tumoricidal activity” and the Anti-tumor effect result is “No”.

Take AMIEFIQGL: the “recognition of peptides by memory EH13144-induced Tc1 cells (IFNγ ELISpot)” value with splenic CD8+ T cells (Example 3, FIG. 13/32, DCs pulsed with 20 μg/ml peptides) is “highly recognized”.

Take Enterococcus hirae strain IGR4 [IGR 4]: in the assay on MCA-205 sarcoma [1], the “antitumor effect together with CTX” value was “effective at synergizing with CTX”, the “boost of CTX tumoricidal activity” value is on record as “also immunogenic” and the Anti-tumor effect result was “Yes”. Moreover, the “boost of CTX tumoricidal activity” value with MCA-205 sarcoma [1] (listed as EH IGR 4) is “efficacy comparable to EH 13144”.

RLLKYDVGV: the “immunogenicity in humans” value in assay [4] is recorded as “immunogenicity of which has been experimentally confirmed”.

Enterococcus hirae IGR1 [IGR 1]: in the assay on MCA-205 sarcoma [1], the “boost of CTX tumoricidal activity” value is “not immunogenic; also recorded: failed to efficiently boost CTX tumoricidal activity” and the Anti-tumor effect entry was “No”. Moreover, the “IL-1B and IL-12 production by BM-DC” value in the assay with BM-DC is on record as “as effective as EH13144”.

Regarding KMVEILEEI, the “immunogenicity in humans” value in assay [4] is “immunogenicity of which has been experimentally confirmed”.

In the case of “Enterococcus hirae ATCC9790 [10815 (ATCC9790), reference compound]”, in the assay with MCA-205 sarcoma [1], the “boost of CTX tumoricidal activity” value is “failed to efficiently boost CTX tumoricidal activity” and the Anti-tumor effect result was “No”. For the same compound, the “boost of CTX tumoricidal activity” value in the assay with MCA-205 sarcoma [1] (listed as EH10815) is listed as “did not mediate antitumor effects; also recorded: fails to work”. Moreover, in the assay with MCA-205 sarcoma [2], the “restoration” value is “reduced anticancer effect”. Moreover, the “recall responses to TMP1, TMP2 and Group7 after in vivo immunization with the strain” value with splenic CD8+ T cells is given as “does not induce recall responses”. Moreover, the “TC1 response against TMP1 in mice gavaged with the strain (IFNγ ELISpot)” value in the assay on splenic CD8+ T cells (Example 12, FIG. 27E) is reported as “unable to do so”.

Turning to LLGIYQSYV, the “immunogenicity in humans” value in assay [4] is on record as “immunogenicity of which has been experimentally confirmed”.

With `O=P1(N(CCCl)CCCl)NCCCO1` (stereo not shown) [CTX, cyclophosphamide, reference compound], the “anticancer effect on PSMB4 knock-in (GSFARFRNI) MCA205 tumors” value in assay [5] is reported as “not interfering”.

Regarding “Enterococcus hirae strain IGR11 [IGR 11]”, in the assay with MCA-205 sarcoma [1], the “antitumor effect together with CTX” value is listed as “efficient to mediate some tumoricidal activity”, the “boost of CTX tumoricidal activity” value is “not immunogenic” and the Anti-tumor effect result is given as “Yes”. In addition, the “antitumor effect together with CTX” value in the assay on MCA-205 sarcoma [1] (listed as clone IGR11) was “to some extent”. The “restoration” value in the assay with MCA-205 sarcoma [2] is recorded as “efficient”. The “restoration” value in the assay on MCA-205 sarcoma [2] (listed as E. hirae IGR11) was “as efficient as E. hirae 13144”. In the assay on BM-DC, the “IL-1B and IL-12 production by BM-DC” value is given as “as effective as EH13144”. Further, the “proportion of splenic TMP1-specific CTLs after immunization with the strain (tetramer)” value in assay [3] is listed as “high proportion”.

The values above are taken from patent publication US12102672B2, “Immunogenic sequences from a phage tail length tape measure protein, bacteria expressing the same and their use in treating a cancer” (INSTITUT GUSTAVE ROUSSY, priority 2017, dated 2024).
